Assay results taken from article PMC3140774 (Journal of Medicinal Chemistry, 2011).

What was measured:
[1] = tested on: bloodstream form T. brucei (strain 427); assay: Trypanocidal assay, growth inhibition of cultured bloodstream-form T. brucei; type: cell-based, Trypanosoma brucei; conditions: for times higher activity than C-methyl analogue 7c / times higher activity than the parent 7a: free base form
[2] = tested on: T. cruzi epimastigotes (CL Brener clone); assay: Growth inhibition of T. cruzi epimastigotes; type: cell-based, Trypanosoma cruzi; conditions: free base
[3] = tested on: procyclic (insect form) T. brucei; assay: Activity against cultured procyclic; type: cell-based, Trypanosoma brucei
[4] = tested on: Bloodstream-form T. brucei; conditions: cited from earlier work

Compound: O=C1CNC2(C(=O)N1)C1CC3CC(C1)CC2C3 (stereo not shown) [6a]
- inhibition of parasite growth, preliminary screen ([1]; 5 μg mL^–1, bloodstream-form T. brucei): inactive

Compound: CN1CC(=O)N(CC(=O)NO)C(=O)C12C1CC3CC(C1)CC2C3 (stereo not shown) [7b]
- fold lower potency of hydrochloride versus free base ([1]; bloodstream-form T. brucei): 1.8 fold
- fold decrease in activity against T. brucei compared with 7a ([1]; free base, bloodstream form): 2.1 fold
- fold more potent against T. cruzi than 7a [2]: 1.5 fold

Compound: C[C@@H]1NC2(C(=O)N(CC(=O)NO)C1=O)C1CC3CC(C1)CC2C3 (stereo partly shown) [7c]
- fold lower potency of hydrochloride versus free base ([1]; bloodstream-form T. brucei): 3 fold
- fold decrease in activity against T. brucei compared with 7a ([1]; free base, bloodstream form): 1.5 fold

Compound: O=C(CN1C(=O)[C@H](Cc2ccccc2)NC2(C1=O)C1CC3CC(C1)CC2C3)NO (stereo partly shown) [7d]
- fold lower potency of hydrochloride versus free base ([1]; bloodstream-form T. brucei): 6.2 fold
- times higher activity than C-methyl analogue 7c ([1]; bloodstream form): 8–20 fold
- times higher activity than the parent 7a ([1]; bloodstream form): 5.3–13 fold
- factor less potent than 7e (R-enantiomer) ([1]; tested as hydrochloride salts): 4.6 fold
- factor less potent than 8 (racemic mixture) ([1]; tested as hydrochloride salts): 2.3 fold
- times more resistant: procyclic versus bloodstream-form T. brucei [3]: 10–50 fold
- fold more potent against T. cruzi than 7a [2]: 26 fold

Compound: O=C(CN1C(=O)[C@@H](Cc2ccccc2)NC2(C1=O)C1CC3CC(C1)CC2C3)NO (stereo partly shown) [7e]
- times higher activity than C-methyl analogue 7c ([1]; bloodstream form): 8–20 fold
- times higher activity than the parent 7a ([1]; bloodstream form): 5.3–13 fold
- times more resistant: procyclic versus bloodstream-form T. brucei [3]: 10–50 fold

Compound: O=C(CN1C(=O)CNC2(CCCCCCC2)C1=O)NO [9a]
- fold decrease in activity against T. brucei compared with 7a ([1]; free base, bloodstream form): 3.3 fold

Compound: CN1CC(=O)N(CC(=O)NO)C(=O)C12CCCCCCC2 [9b]
- fold more potent against T. brucei than 9a ([1]; free base, bloodstream form): 1.9 fold

Compound: C[C@@H]1NC2(CCCCCCC2)C(=O)N(CC(=O)NO)C1=O [9c]
- fold more potent against T. brucei than 9a ([1]; free base, bloodstream form): 2.4 fold

Compound: O=C(CN1C(=O)[C@H](Cc2ccccc2)NC2(CCCCCCC2)C1=O)NO [9d]
- fold more potent against T. brucei than 9a ([1]; free base, bloodstream form): 10 fold
- times more trypanocidal activity than C-methyl counterpart 9c ([1]; free base, bloodstream form): 4.3 fold

Compound: O=C(CN1C(=O)CNC2(CCCCCC2)C1=O)NO [10a]
- fold decrease in activity against T. brucei compared with 7a ([1]; free base, bloodstream form): 21 fold

Compound: CN1CC(=O)N(CC(=O)NO)C(=O)C12CCCCCC2 [10b]
- times more potent against T. brucei than 10a ([1]; free base, bloodstream form): 6.6 fold

Compound: O=C1ON=C2C3CC4CC(C3)CC12C4 [compound 3]
- potency fold greater than amantadine ([4]; T. brucei in vitro): at least 45 fold

Compound: O=C(CN1C(=O)C(Cc2ccccc2)NC2(C1=O)C1CC3CC(C1)CC2C3)NO (stereo not shown) [compound 8]
- times higher activity than C-methyl analogue 7c ([1]; bloodstream form): 8–20 fold
- times higher activity than the parent 7a ([1]; bloodstream form): 5.3–13 fold
- times more resistant: procyclic versus bloodstream-form T. brucei [3]: 10–50 fold

Compound: CC(N)C12CC3CC(CC(C3)C1)C2 (stereo not shown) [rimantadine]
- IC50 ([4]; read-out: IC50 bloodstream-form T. brucei, in vitro): 7 µM
